Drawing on ChEMBL document CHEMBL5728313, “Methods for inhibiting fascin” (2021), this text covers IC50 for 1 compound.

SMILES strings stand for the structures. pIC50: −log10 of the molar value.

The nature of this assay: High Throughput Inhibition Assay: A high throughput assay was developed to screen for fascin specific inhibitors. Purified polymerized F-actin with or without fascin were mixed and incubated to allow actin bundle formation. F-actin polymers were then bound to the poly-D-lysine coated plates. After extensive washes, F-actin polymers were visualized by labeling them with Alexa Fluor 488 phalloidin. Four images were taken from each well and the average fiber length was analyzed for each tested compound.

As a reminder, the pIC50 is −log10 of the IC50, conventionally taken in molar units. `O=C(Cn1cnc2c(cnn2C2CCS(=O)(O)(O)C2)c1=O)Nc1ccc(Cl)cc1` (stereo unspecified) gave a negative-log IC50 (pIC50) of 5.37.
